Species: Rattus norvegicus
Assay: Open TG-GATES - Regimen: Single
Format: toxicity, organism-based, Sprague-Dawley
Set-up: regimen Single, gender Male, age 6 weeks
Details: in vivo, po, 100 mg/kg, route gavage, dose level Low; for APTT / Bas / Eos / Fbg / Hb / Ht / Lym / MCH / MCHC / MCV / Mono / Neu / PT / Plat / RBC / Ret / WBC: tissue Blood; for KIDNEY_L / KIDNEY_R / KIDNEY_TOTAL: tissue Kidney; for LIVER: tissue Liver; for ALP / ALT / AST / CRE / DBIL / GLC / IP / K / LDH / Na / PL / RALB / TBIL / TC / TP / gamma-GTP: tissue Plasma

Clc1ccccc1CN1CCc2sccc2C1 [TICLOPIDINE]
TERMINAL_BW (3 h): 210.7 g | APTT (3 h): 19.6 s | Bas (3 h): 0.2% | Eos (3 h): 0.8% | Fbg (3 h): 226.4 mg/dL | Hb (3 h): 13.4 g/dL | Ht (3 h): 38.3% | Lym (3 h): 78.6% | MCH (3 h): 21.4 pg | MCHC (3 h): 35% | MCV (3 h): 61.1 fL | Mono (3 h): 2.8% | Neu (3 h): 16.6% | PT (3 h): 12.2 s | Plat (3 h): 117.9 x10_4/uL | RBC (3 h): 628 x10_4/ul | Ret (3 h): 8.1% | WBC (3 h): 70.6 x10_2/uL | KIDNEY_L (3 h): 1 g | KIDNEY_R (3 h): 1 g | KIDNEY_TOTAL (3 h): 2 g | LIVER (3 h): 9 g | ALP (3 h): 1125 IU/L | ALT (3 h): 35 IU/L | AST (3 h): 71 IU/L | CRE (3 h): 0.4 mg/dL | DBIL (3 h): 0.076 mg/dL | GLC (3 h): 200.6 mg/dL | IP (3 h): 10.6 mg/dL | K (3 h): 3.9 meq/L | LDH (3 h): 155.4 IU/L | Na (3 h): 141.4 meq/L | PL (3 h): 132.2 mg/dL | RALB (3 h): 3.3 g/dL | TBIL (3 h): 0.1 mg/dL | TC (3 h): 70.2 mg/dL | TP (3 h): 5.5 g/dL | gamma-GTP (3 h): 0.8 IU/L | TERMINAL_BW (6 h): 209.6 g | APTT (6 h): 18.1 s | Bas (6 h): 0.4% | Eos (6 h): 1% | Fbg (6 h): 231.6 mg/dL | Hb (6 h): 13.4 g/dL | Ht (6 h): 37.9% | Lym (6 h): 76% | MCH (6 h): 20.8 pg | MCHC (6 h): 35.3% | MCV (6 h): 58.9 fL | Mono (6 h): 2.8% | Neu (6 h): 19.2% | PT (6 h): 12.3 s | Plat (6 h): 130.4 x10_4/uL | RBC (6 h): 643.6 x10_4/ul | Ret (6 h): 7.9% | WBC (6 h): 75.4 x10_2/uL | KIDNEY_L (6 h): 0.9 g | KIDNEY_R (6 h): 0.9 g | KIDNEY_TOTAL (6 h): 1.8 g | LIVER (6 h): 8.7 g | ALP (6 h): 940.2 IU/L | ALT (6 h): 31.6 IU/L | AST (6 h): 68.4 IU/L | CRE (6 h): 0.4 mg/dL | DBIL (6 h): 0.08 mg/dL | GLC (6 h): 189 mg/dL | IP (6 h): 10.1 mg/dL | K (6 h): 3.9 meq/L | LDH (6 h): 212 IU/L | Na (6 h): 141.4 meq/L | PL (6 h): 137.2 mg/dL | RALB (6 h): 3.4 g/dL | TBIL (6 h): 0.1 mg/dL | TC (6 h): 77.8 mg/dL | TP (6 h): 5.5 g/dL | gamma-GTP (6 h): 0.8 IU/L | TERMINAL_BW (9 h): 208 g | APTT (9 h): 17.3 s | Bas (9 h): 0.2% | Eos (9 h): 0.6% | Fbg (9 h): 226.6 mg/dL | Hb (9 h): 13.3 g/dL | Ht (9 h): 37.5% | Lym (9 h): 74.6% | MCH (9 h): 21.4 pg | MCHC (9 h): 35.4% | MCV (9 h): 60.5 fL | Mono (9 h): 2.8% | Neu (9 h): 20.6% | PT (9 h): 12.7 s | Plat (9 h): 123.9 x10_4/uL | RBC (9 h): 621.6 x10_4/ul | Ret (9 h): 7.5% | WBC (9 h): 81 x10_2/uL | KIDNEY_L (9 h): 0.9 g | KIDNEY_R (9 h): 0.9 g | KIDNEY_TOTAL (9 h): 1.9 g | LIVER (9 h): 8.3 g | ALP (9 h): 955 IU/L | ALT (9 h): 29.6 IU/L | AST (9 h): 69.8 IU/L | CRE (9 h): 0.4 mg/dL | DBIL (9 h): 0.082 mg/dL | GLC (9 h): 199.8 mg/dL | IP (9 h): 10 mg/dL | K (9 h): 3.8 meq/L | LDH (9 h): 151.2 IU/L | Na (9 h): 142.6 meq/L | PL (9 h): 141.6 mg/dL | RALB (9 h): 3.4 g/dL | TBIL (9 h): 0.1 mg/dL | TC (9 h): 77.6 mg/dL | TP (9 h): 5.4 g/dL | gamma-GTP (9 h): 1.4 IU/L | TERMINAL_BW (24 h): 219.8 g | APTT (24 h): 21.2 s | Bas (24 h): 1% | Eos (24 h): 1% | Fbg (24 h): 222 mg/dL | Hb (24 h): 13.6 g/dL | Ht (24 h): 38.3% | Lym (24 h): 77.8% | MCH (24 h): 21.7 pg | MCHC (24 h): 35.5% | MCV (24 h): 61.3 fL | Mono (24 h): 2.8% | Neu (24 h): 16.8% | PT (24 h): 12 s | Plat (24 h): 124.9 x10_4/uL | RBC (24 h): 624.4 x10_4/ul | Ret (24 h): 6.3% | WBC (24 h): 116 x10_2/uL | KIDNEY_L (24 h): 1 g | KIDNEY_R (24 h): 1 g | KIDNEY_TOTAL (24 h): 2 g | LIVER (24 h): 10.1 g | ALP (24 h): 1052.4 IU/L | ALT (24 h): 37.8 IU/L | AST (24 h): 70.2 IU/L | CRE (24 h): 0.4 mg/dL | DBIL (24 h): 0.072 mg/dL | GLC (24 h): 188.6 mg/dL | IP (24 h): 8.1 mg/dL | K (24 h): 4.1 meq/L | LDH (24 h): 141.4 IU/L | Na (24 h): 141.6 meq/L | PL (24 h): 136.4 mg/dL | RALB (24 h): 3.4 g/dL | TBIL (24 h): 0.1 mg/dL | TC (24 h): 72.2 mg/dL | TP (24 h): 5.5 g/dL | gamma-GTP (24 h): 1 IU/L
